Measurements: PubChem BioAssay (NCI)
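Five concentrations, 48 hours, 96-well plates. TGI: concentration producing complete growth inhibition.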

Tests used:
Experiment in all cases: NCI tumour cell line growth inhibition, 48 h
OVCAR-8 ovarian = tested on: OVCAR-8 ovarian
M14 melanoma = tested on: M14 melanoma
NCI-H522 lung = tested on: NCI-H522 lung
MDA-MB-231 breast = tested on: MDA-MB-231 breast
MDA-MB-435 = tested on: MDA-MB-435
KM12 colon = tested on: KM12 colon
NCI-H23 lung = tested on: NCI-H23 lung
SNB-75 CNS = tested on: SNB-75 CNS
SW-620 colon = tested on: SW-620 colon
HCT-116 colon = tested on: HCT-116 colon
SF-539 CNS = tested on: SF-539 CNS
HL-60(TB) leukemia = tested on: HL-60(TB) leukemia
NCI-H460 lung = tested on: NCI-H460 lung
IGROV1 ovarian = tested on: IGROV1 ovarian
NCI/ADR-RES ovarian = tested on: NCI/ADR-RES ovarian
LOX IMVI melanoma = tested on: LOX IMVI melanoma
T-47D breast = tested on: T-47D breast
TK-10 renal = tested on: TK-10 renal

## O=c1c2c(sc3ccccc13)NCN(CCc1ccccc1)C2
OVCAR-8 ovarian
  TGI: > 100 µM
M14 melanoma
  TGI: 84.4 µM
NCI-H522 lung
  TGI: > 100 µM
MDA-MB-231 breast
  TGI: 77.5 µM
MDA-MB-435
  TGI: > 100 µM
KM12 colon
  TGI: > 100 µM
NCI-H23 lung
  TGI: > 100 µM
SNB-75 CNS
  TGI: 78.2 µM
SW-620 colon
  TGI: > 100 µM
HCT-116 colon
  TGI: > 100 µM
SF-539 CNS
  TGI: > 100 µM
HL-60(TB) leukemia
  TGI: > 100 µM
NCI-H460 lung
  TGI: > 100 µM
IGROV1 ovarian
  TGI: > 100 µM
NCI/ADR-RES ovarian
  TGI: 99 µM
LOX IMVI melanoma
  TGI: > 100 µM

## CC1=NN(c2nc(N)nc(C(C)Sc3cc(Cl)c(C)cc3S(N)(=O)=O)n2)C(C)(C)C1 (stereo not drawn)
OVCAR-8 ovarian
  TGI: > 10 µM
T-47D breast
  TGI: > 10 µM
M14 melanoma
  TGI: > 10 µM
NCI-H522 lung
  TGI: > 10 µM
KM12 colon
  TGI: > 10 µM
TK-10 renal
  TGI: > 10 µM
NCI-H23 lung
  TGI: > 10 µM
SNB-75 CNS
  TGI: > 10 µM
SW-620 colon
  TGI: > 10 µM
HCT-116 colon
  TGI: > 10 µM
SF-539 CNS
  TGI: > 10 µM
HL-60(TB) leukemia
  TGI: > 10 µM
NCI-H460 lung
  TGI: > 10 µM
IGROV1 ovarian
  TGI: > 10 µM
NCI/ADR-RES ovarian
  TGI: > 10 µM
LOX IMVI melanoma
  TGI: > 10 µM

## CCCCOP(=O)(OCCCC)/C(C#N)=C/c1ccc(C)o1
OVCAR-8 ovarian
  TGI: > 100 µM
T-47D breast
  TGI: > 100 µM
M14 melanoma
  TGI: 78.5 µM
NCI-H522 lung
  TGI: > 100 µM
MDA-MB-231 breast
  TGI: > 100 µM
MDA-MB-435
  TGI: 95.9 µM
KM12 colon
  TGI: > 100 µM
TK-10 renal
  TGI: > 100 µM
NCI-H23 lung
  TGI: 92.3 µM
SNB-75 CNS
  TGI: > 100 µM
SW-620 colon
  TGI: > 100 µM
HCT-116 colon
  TGI: > 100 µM
SF-539 CNS
  TGI: > 100 µM
NCI-H460 lung
  TGI: > 100 µM
IGROV1 ovarian
  TGI: > 100 µM
NCI/ADR-RES ovarian
  TGI: 64.4 µM
LOX IMVI melanoma
  TGI: > 100 µM

## CN(C)CCSC(=Nc1ccccc1)N1C=COC=C1
OVCAR-8 ovarian
  TGI: > 63.3 µM
T-47D breast
  TGI: 74.4 µM
M14 melanoma
  TGI: 36.2 µM
NCI-H522 lung
  TGI: 34 µM
MDA-MB-231 breast
  TGI: 41.1 µM
MDA-MB-435
  TGI: 34.8 µM
KM12 colon
  TGI: > 100 µM
TK-10 renal
  TGI: > 100 µM
NCI-H23 lung
  TGI: > 73.6 µM
SNB-75 CNS
  TGI: > 100 µM
SW-620 colon
  TGI: 43.5 µM
HCT-116 colon
  TGI: 45 µM
SF-539 CNS
  TGI: > 89 µM
HL-60(TB) leukemia
  TGI: > 100 µM
NCI-H460 lung
  TGI: > 100 µM
IGROV1 ovarian
  TGI: 33.4 µM
LOX IMVI melanoma
  TGI: 31.8 µM

## Cc1ccc(C2(C)NC(=S)N(NC(N)=S)C2=S)cc1 (stereo not drawn)
OVCAR-8 ovarian
  TGI: > 100 µM
M14 melanoma
  TGI: > 100 µM
TK-10 renal
  TGI: > 100 µM
NCI-H23 lung
  TGI: > 100 µM
SNB-75 CNS
  TGI: > 100 µM
SW-620 colon
  TGI: > 100 µM
HCT-116 colon
  TGI: > 100 µM
SF-539 CNS
  TGI: > 100 µM
HL-60(TB) leukemia
  TGI: > 100 µM
NCI-H460 lung
  TGI: > 100 µM
IGROV1 ovarian
  TGI: > 100 µM
LOX IMVI melanoma
  TGI: > 100 µM

## O=c1n(CCCN2CCN(c3cccc(Cl)c3)CC2)nc2n1-c1ccc3ccccc3c1SC2
OVCAR-8 ovarian
  TGI: > 100 µM
NCI-H522 lung
  TGI: > 100 µM
MDA-MB-435
  TGI: > 100 µM
KM12 colon
  TGI: > 100 µM
TK-10 renal
  TGI: > 100 µM
SNB-75 CNS
  TGI: > 100 µM
SW-620 colon
  TGI: > 100 µM
HCT-116 colon
  TGI: > 100 µM
SF-539 CNS
  TGI: > 100 µM
HL-60(TB) leukemia
  TGI: > 100 µM
NCI-H460 lung
  TGI: > 100 µM
IGROV1 ovarian
  TGI: > 100 µM
NCI/ADR-RES ovarian
  TGI: > 100 µM
LOX IMVI melanoma
  TGI: > 100 µM

## Cc1ccc(-c2c(C#N)c(-c3ccc([N+](=O)[O-])cc3)c(C#N)c(=O)n2NS(=O)(=O)c2ccc(C)cc2)cc1
OVCAR-8 ovarian
  TGI: > 100 µM
M14 melanoma
  TGI: > 100 µM
NCI-H522 lung
  TGI: > 100 µM
MDA-MB-231 breast
  TGI: > 100 µM
MDA-MB-435
  TGI: > 100 µM
KM12 colon
  TGI: > 100 µM
TK-10 renal
  TGI: > 100 µM
SNB-75 CNS
  TGI: > 100 µM
SW-620 colon
  TGI: > 100 µM
HCT-116 colon
  TGI: > 100 µM
SF-539 CNS
  TGI: > 100 µM
HL-60(TB) leukemia
  TGI: 84.3 µM
NCI-H460 lung
  TGI: > 100 µM
IGROV1 ovarian
  TGI: > 100 µM
NCI/ADR-RES ovarian
  TGI: > 100 µM
LOX IMVI melanoma
  TGI: > 100 µM
